Entries after “also recorded” stand apart in the source; their conditions may differ.
Experiments:
[1] = tested on: Gram-positive (Staphylococcus aureus) and Gram-negative (Eshcerichia coli) bacteria; experiment: Rifampicin-depletion of bacterial RNA, flow cytometry and microplate reader (Example 37); type: cell-based
Description: Gram-positive (Staphylococcus aureus) and Gram-negative (Eshcerichia coli) bacteria in growth medium were treated with 25 μg/mL rifampicin for one hour. Treated and untreated bacteria were counted, diluted to 1×10^7 bacteria/mL in 0.85% NaCl, and 1 mL aliquots incubated with 0.25 μM, 0.5 μM, or 1 μM Compound 6 or Compound 9 for 10-15 minutes protected from light. The samples were analyzed by flow cytometry and then 100 μL volumes were transferred to a microplate in triplicate and analyzed by a microplate reader. The fluorescence intensity was corrected against the dye in solution, which was weakly fluorescent.

[2] = tested on: Bovine pulmonary arterial endothelial cells; experiment: Nucleic acid binding on RNase and DNase treated formaldehyde-fixed eukaryotic cells (Example 39); type: cell-based; settings: Compound 6 687 nM, Compound 19 1 μM
Description: (§1) Bovine pulmonary arterial endothelial cells were grown in media for one day after plating and then fixed fifteen minutes in 4% paraformaldehyde. Cells were washed 3×5 minutes in PBT (0.05M phosphate-buffered saline (PBS) containing 0.1% Triton X-100) and then treated with RNase (from Roche, at 1:500 dilution) or DNase (from Promega, at 1:100 dilution), or both for 2 hours at 37° C. Cells were washed again for 3×5 minutes in PBT and then labeled with Compound 6 at 687 nM concentration or Compound 19 at 1 μM concentration in PBS for 20 minutes. Cells were washed 3×10 minutes in PBS and mounted on microscope slides in ProLong antifade mounting medium (Molecular Probes, Inc.). After the mountant had hardened, slides were examined on a Nikon Eclipse 800 upright fluorescent microscope and imaged with a FITC filter set, a Princeton Instrument MicroMax cooled CCD camera, and Universal Imaging MetaMorph imaging software. […] See, FIG. 5.

RNA versus DNA = experiment: Screening of fluorescence properties and relative fluorescence enhancement with RNA versus DNA (Table 3); type: binding; settings: fluorescence enhancement when associated with RNA to that when associated with DNA
[3] = tested on: Bovine pulmonary arterial endothelial cells; experiment: Nucleic acid binding in live eukaryotic cells followed by fixing of cells (Example 40); type: cell-based
Description: Bovine pulmonary arterial endothelial cells were grown in media for one day after plating and then labeled before fixing with 687 nM Compound 6 for 20 minutes. Some cells were rinsed in media and separated for live imaging. The other cells were rinsed twice with media and then fixed in 4% paraformaldehyde for 15 minutes at room temperature, 0.5% glutaraldehyde for 5 minutes at room temperature, or 100% methanol for 10 minutes at −20° C. Cells were washed 3×10 minutes in phosphate-buffered saline and mounted on microscope slides in ProLong antifade mounting medium (Molecular Probes, Inc.). After the mountant had hardened, slides were examined on a Nikon Eclipse 800 upright fluorescent microscope and imaged with a FITC filter set, a Princeton Instrument MicroMax cooled CCD camera, and Universal Imaging MetaMorph imaging software. […] Fixation with either paraformaldehyde or glutaraldehyde removed all mitochondrial labeling. Nucleolar label remained, but nuclear label increased. […] Methanol-fixation had good nucleolar labeling, with only a slight increase in nuclear labeling. All mitochondrial labeling was removed. Cytoplasmic label increased slightly, but not nearly to the extent seen with other fixation. Results generally indicate that methanol-fixation is the recommended fixation technique.

[4] = tested on: Bovine pulmonary arterial endothelial cells; experiment: Nucleic acid binding after RNase and DNase on methanol-fixed eukaryotic cells (Example 38); type: cell-based
Description: as §1, with “ten” for “fifteen”, “100% methanol at −20° C.” for “4% paraformaldehyde.”, “dilution)” for “dilution), or both”, “concentration” for “concentration or Compound 19 at 1 μM concentration in PBS”, “medium.” for “medium (Molecular Probes, Inc.).”, “4.” for “5.”

[5] = tested on: Bovine pulmonary arterial endothelial cells; experiment: Nucleic acid binding in methanol-fixed eukaryotic cells (Example 42); type: cell-based
Description: Bovine pulmonary arterial endothelial cells were grown in media for one day after plating on coverslips and then fixed 10 minutes in −20° C. 100% methanol. Cells were washed 3×5 minutes 50 mM phosphate buffered saline (PBS), pH 7.3. Cells were labeled with Compound 11 at 5 μM, 1 μM, or 500 nM concentration in PBS for 20 minutes, washed 3×10 minutes in PBS, and mounted in ProLong antifade mountant (Molecular Probes, Inc.). Cells were labeled with Compound 6 at 500 nM in PBS for 20 minutes. After the mountant had hardened, slides were examined on a Nikon Eclipse 800 upright fluorescent microscope and imaged with a blue-green filter set, a Princeton Instruments MicroMax cooled CCD camera, and Universal Imaging MetaMorph imaging software. Comparison of emission wavelength was made using a Zeiss 510 confocal microscope utilizing a META spectral unmixing system. […] Optimal labeling for both compounds appeared to be about […]. […] See, FIG. 6.

[6] = tested on: HeLa human cervical cancer cells; experiment: Nucleic acid binding in live eukaryotic cells, HeLa (Example 41); type: cell-based
Description: (§2) Bovine pulmonary arterial endothelial (BPEA) cells and HeLa human cervical cancer cells were grown in media for one day after plating on coverslips. Cells were labeled with 1 μM or 10 μM of Compound 21 for HeLa cells, or 10 μM in BPAE cells, in media at 37° C. for 20 minutes, then rinsed twice and mounted in warm medium. Coverslips were examined on a Nikon Eclipse 800 upright fluorescent microscope and imaged with a far red filter set, a Princeton Instruments MicroMax cooled CCD camera, and Universal Imaging MetaMorph imaging software.

[7] = tested on: Bovine pulmonary arterial endothelial (BPEA) cells; experiment: Nucleic acid binding in live eukaryotic cells, BPAE (Example 41); type: cell-based; settings: 10 μM
Description: as §2

[8] = methanol fixed cells, cytoplasm, nucleus and nucleolus (FIG. 4)
[9] = methanol-fixed, compound 687 nM
[10] = methanol-fixed, compound 687 nM, by eye

## C[n+]1c(/C=C2\C=C(N3CCN(C4=C/C(=C\c5sc6ccccc6[n+]5C)c5ccccc5N4c4ccccc4)CC3)N(c3ccccc3)c3ccccc32)sc2ccccc21.[Cl-].[Cl-] [Compound 6]
[1]; 25 μg/mL rifampicin one hour, compound 0.25, 0.5 or 1 μM, 10-15 minutes
  fluorescent signal of rifampicin treated versus untreated bacteria: decrease in fluorescent signal after removal of mRNA
[1]; S. aureus, compound 0.25, 0.5 and 1 μM
  signal intensity on RNA versus DNA in S. aureus cells with and without rifampicin: stronger signal intensity when bound to RNA
[2]
  cytoplasmic label after DNase: significantly reduced by both RNase and DNase
  cytoplasmic label after RNase: significantly reduced by both RNase and DNase
  labeling of nucleoli after RNase: eliminated
  nuclear labeling after DNase: significantly reduced by both RNase and DNase
  nuclear labeling after RNase: significantly reduced by both RNase and DNase
  nucleolar intensity after DNase: significantly reduced
RNA versus DNA
  Fluorescence Enhancement Ratio (RNA/DNA): 7.0
[3]; 687 nM, 20 minutes, live imaging
  labeling pattern in live cells: strong nucleolar label, strong punctate labeling in mitochondria consistent with mtDNA, and dimmer ubiquitous mitochondrial labeling
[3]; labeled live at 687 nM, then 4% paraformaldehyde or 0.5% glutaraldehyde
  labeling pattern after fixation with paraformaldehyde or glutaraldehyde: removed all mitochondrial labeling. Nucleolar label remained, but nuclear label increased. General cytoplasmic labeling also increased significantly
[3]; labeled live at 687 nM, then 100% methanol 10 minutes −20° C.
  labeling pattern after methanol-fixation: good nucleolar labeling, with only a slight increase in nuclear labeling. All mitochondrial labeling was removed. Cytoplasmic label increased slightly
[4]; [8]
  signal intensity of DNase treated cells: no decrease in signal intensity
  signal intensity of RNase treated cells: significant reduction in signal intensity
[4]; [9]
  nuclear labeling after DNase: not DNase
  nuclear labeling after RNase: significantly reduced by RNase
[4]; methanol-fixed, compound 687 nM, DNase 2 hours 37° C.
  nucleolar intensity after DNase: did not significantly affect
[4]; methanol-fixed, compound 687 nM, RNase 2 hours 37° C.
  labeling of nucleoli after RNase: eliminated
[4]; [10]
  cytoplasmic label after DNase: not DNase
  cytoplasmic label after RNase: reduced by RNase
[5]; FIG. 6
  concentration of peak emission in detection of intracellular nucleic acid: 500 nM
[5]; methanol-fixed cells
  optimal labeling concentration: about 500 μM
[5]; methanol-fixed, Compound 11 5 μM, 1 μM or 500 nM, Compound 6 500 nM, 20 minutes
  staining pattern: strong nucleolar and cytoplasmic labeling, with dimmer nuclear labeling, indicating selective RNA staining

## C[n+]1c(/C=C2\C=C(N3CCN(C4=C/C(=C\c5oc6ccccc6[n+]5C)c5ccccc5N4c4ccccc4)CC3)N(c3ccccc3)c3ccccc32)oc2ccccc21.[Cl-].[Cl-] [Compound 20]
[6]
  selective detection of RNA in live cells: did not demonstrate selective detection of RNA in live cells
[6]; 1 μM or 10 μM, far red filter set
  labeling pattern in HeLa cells: mitochondrial labeling, with stronger punctate spots within the mitochondria, typical of mitochondrial DNA staining; also recorded: very dim nucleolar labeling
[6]; 20 minutes 37° C.
  cell permeability in live cells: cell permeable
RNA versus DNA
  Fluorescence Enhancement Ratio (RNA/DNA): 8.5
[7]
  labeling pattern in BPAE cells: no specific labeling evident, and much higher off-cell background
